According to patent US20070082061A1, “REDUCTION OF SALTINESS WITH SWEETENERS” (priority 2005, published 2007):
Where two headings read alike, the source gives them in different places. Where a SMILES comes first, the peptide text is derived from it.

Experiments:
[1] = Stability of sweeteners in FLEET PHOSPHO-SODA (Example 1)
Experimental: While it is possible to add the sweetener and/or flavoring a short time before consumption of a phosphate salt bowel cleanser and retain at least a portion of the palatability benefits, one goal of the present bowel cleansing compositions is to provide stable liquids having increased palatability. Thus, numerous sweeteners and flavorings were tested for stability in phosphate salt bowel cleanser.
Sucrose, Saccharin, Sucralose, Aspartame, Ace-K, Thaumatin (Talin), Neohesperidine Dihydrochalcone (NHDC), and Trehalose were tested for stability in FLEET® PHOSPHO-SODA®.

[2] = Taste tests to determine equivalent sweetness of sweeteners in a salty liquid (Example 4); type: in vivo, human
Experimental: Before a preferred sweetener for use in salty liquids could be determined, the amount of each sweetener required to provide an equivalent sweetness was determined. Multiple taste tests were performed comparing various concentrations of Sucralose, Ace-K, the 5:1 Ace-K/Sucralose blend, Saccharin, and sucrose in a salty liquid to determine an equivalent […].

[3] = Sweetener preference in diluted phosphate salt bowel cleanser, forty test subjects (Example 5); type: in vivo, human; conditions: scale 1 to 4, 60 mL phosphate salt bowel cleanser in 355 mL water
Experimental: Each solution was prepared by diluting 60 mL of the phosphate salt bowel cleanser from Example 2 in 355 mL of water and using either 0.05% Ace-K, 0.05% Sucralose, 0.08% saccharin, 0.05% of a 5:1 Ace-K/Sucralose blend, or 15% sucrose as the sweetener.

[4] = Sweetener concentration preference in diluted phosphate salt bowel cleanser, about 35 testers (Example 10); type: in vivo, human; conditions: for preferred sweetener concentration to decrease saltiness: in the phosphate salt bowel cleanser; for Average rating: scale 1 to 4, 4 highly preferred, phosphate salt bowel cleanser in water
Experimental: To confirm the correlation of FIG. 1 in a bowel cleanser with multiple sweeteners, approximately 35 testers were asked to select the most palatable solution from five possibilities. Each of the five solutions included 60 mL of the phosphate salt bowel cleanser from Example 2 in 355 mL of water. This solution has an equivalent saltiness to the 2% NaCI/water solution of Example 9. The first of the five solutions lacked any sweetener, while an increasing concentration of sweetener was added to the remaining four. Tests were performed using Sucralose, the 5:1 Ace-K/Sucralose blend, Ace-K, or Saccharin as the sweetener.
Tables 8, 9, 10, and 11, below, present the average test data for each sweetener, respectively.
The sweetener concentration for each data point corresponds to those in Tables 8 through 11, above, with higher values on the X-axis corresponding to higher sweetener concentrations.

[5] = considered to be; cited from earlier work

Compound: CC1=CC(=O)NS(=O)(=O)O1 [Ace-K, acesulfame potassium]
- stability in FLEET PHOSPHO-SODA [1]: acceptable stability
- sweetener concentration providing an equivalent sweetness [2]: 0.05%
- average preference value ([3]; 0.05% sweetener): 2.45
- preferred sweetener concentration to decrease saltiness [4]: 0.05%
- Average rating ([4]; Ace-K 0.025 % (w/w)): 1.88
- Average rating ([4]; Ace-K 0.05 % (w/w)): 2.63
- Average rating ([4]; Ace-K 0.1 % (w/w)): 2.16
- Average rating ([4]; Ace-K 0.2 % (w/w)): 2.16
- sweetness relative to sucrose / sugar [5]: about 200 times

Compound: COC(=O)[C@H](Cc1ccccc1)NC(=O)[C@@H](N)CC(=O)O [Aspartame] (HELM PEPTIDE1{D.F.[CO[*:1]]}$$$$V2.0)
- stability in FLEET PHOSPHO-SODA [1]: effectiveness diminished over time

Compound: COc1ccc(CCC(=O)c2c(O)cc(O[C@@H]3O[C@H](CO)[C@@H](O)[C@H](O)[C@H]3O[C@@H]3O[C@@H](C)[C@H](O)[C@@H](O)[C@H]3O)cc2O)cc1O [Neohesperidine Dihydrochalcone (NHDC), Neohesperidine Dihydrochalcone]
- stability in FLEET PHOSPHO-SODA ([1]; sweetener in phosphate salt laxative solution): effectiveness diminished over time

Compound: O=C1NS(=O)(=O)c2ccccc21 [Saccharin]
- stability in FLEET PHOSPHO-SODA [1]: acceptable stability
- sweetener concentration providing an equivalent sweetness [2]: 0.083%
- average preference value ([3]; 0.08% sweetener): 2.5
- preferred sweetener concentration to decrease saltiness [4]: about 0.0832%
- Average rating ([4]; Saccharin 0.0208 % (w/w)): 2.29
- Average rating ([4]; Saccharin 0.0416 % (w/w)): 2.47
- Average rating ([4]; Saccharin 0.0832 % (w/w)): 2.47
- Average rating ([4]; Saccharin 0.1664 % (w/w)): 1.97
- sweetness relative to sucrose / sugar [5]: about 200 times

Compound: OC[C@H]1O[C@@](CO)(O[C@H]2O[C@H](CO)[C@@H](O)[C@H](O)[C@H]2O)[C@@H](O)[C@@H]1O [Sucrose, reference compound]
- stability in FLEET PHOSPHO-SODA [1]: effectiveness diminished over time
- sweetener concentration providing an equivalent sweetness [2]: 15%
- average preference value ([3]; 15% sweetener): 3.3

Compound: OC[C@H]1O[C@H](O[C@H]2O[C@H](CO)[C@@H](O)[C@H](O)[C@H]2O)[C@H](O)[C@@H](O)[C@@H]1O [Trehalose]
- stability in FLEET PHOSPHO-SODA [1]: effectiveness diminished over time

Compound: Thaumatin [Thaumatin (Talin)]
- stability in FLEET PHOSPHO-SODA [1]: effectiveness diminished over time
